Data from PMC8278147, “Synthesis of New 1H-1,2,3-Triazole Analogs in Aqueous Medium via “Click” Chemistry: A Novel Class of Potential Carbonic Anhydrase-II Inhibitors” (Frontiers in Chemistry, 2021).

Biological target: T1, bovine carbonic anhydrase-II enzyme (Bos taurus, UniProt P00921)
T1 construct: In vitro experiment of bovine erythrocyte CA-II was conducted in HEPES-Tris buffer; from tissue; host or cells: bovine erythrocytes
Assay: In vitro carbonic anhydrase-II inhibition assay (p-nitrophenylacetate substrate)
Assay type: biochemical
Conditions: bovine erythrocyte CA-II, HEPES-Tris buffer pH 7.4, 25°C, substrate p-nitrophenylacetate 0.7 mM, triplicate
Method: In vitro experiment of bovine erythrocyte CA-II was conducted in HEPES-Tris buffer (20 mM) to maintain the pH 7.4. The purified was dissolved in HEPES-Tris buffer (0.1 mg/ml), and the reaction mixture was comprised of 140 μL of the HEPES-Tris buffer, 20 μL of the enzyme, and 20 μL of test compound (prepared in DMSO) and was incubated for 15 min at 25°C. After completion of the preincubation, the reaction was started by adding instantly the substrate p-nitrophenylacetate (P-NPA) at a concentration of 0.7 mM and prepared in methanol. To initiate the reaction, the 96-well plate was placed in a microplate reader and continuous product formation was monitored with a one-minute time interval for 30 min at 400 nm. The assay temperature was strictly controlled and kept at 25°C. All the reaction was conducted in triplicate, and the results are presented as mean.

T1 sequence (P00921 whole entry): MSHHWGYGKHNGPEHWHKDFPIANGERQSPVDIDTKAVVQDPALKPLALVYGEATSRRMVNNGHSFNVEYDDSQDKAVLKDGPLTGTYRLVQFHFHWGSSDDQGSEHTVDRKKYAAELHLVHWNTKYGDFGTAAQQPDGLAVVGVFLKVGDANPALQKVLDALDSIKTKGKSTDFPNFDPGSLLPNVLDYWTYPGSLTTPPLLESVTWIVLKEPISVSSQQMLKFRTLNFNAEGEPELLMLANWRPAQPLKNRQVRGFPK

- IC50: 13.8 ± 0.63 µM
Structure (SMILES): COc1cc(Br)ccc1O[C@H](C)Cn1cc(-c2ccc(N)cc2)nn1 [Compound 7b, (R)-4-(1-(2-(4-Bromo-2-methoxyphenoxy)propyl)-1H-1,2,3-triazol-4-yl)aniline]
